{"source": "patent US20110039721A1", "about": "“METHOD FOR PREDICTION ABOUT CARCINOGENICITY OF SUBSTANCE IN RODENT” (Chemicals Evaluation and Research Institute, priority 2007, published 2011)", "key": {"[1]": {"tested_on": "mRNA expressed from the genes (A) to (D) in rat liver", "assay": "Behavior of genes (mRNA expression level, oligo-DNA microarray) in rat liver after 28-day oral administration", "type": "in vivo", "conditions": "mRNA vs vehicle control group", "how_it_was_run": "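Rat liver RNA after 28 days of daily gavage dosing (male F344, 5 weeks old, four per group). A change reaching 1.5-fold, or 1/1.5, against solvent control scores as significant; opposite direction versus another carcinogen scores as not significant.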"}, "liver": {"tested_on": "liver", "conditions": "in vivo; cited from earlier work"}, "rodent": {"tested_on": "rodent", "conditions": "in vivo; cited from earlier work"}, "[2]": {"conditions": "gene group (A), Unigene No. Rn.167075"}, "[3]": {"conditions": "gene group (C), Unigene No. Rn.120914"}}, "data": [{"smiles": "Cc1cccc(N=Nc2ccc(N(C)C)cc2)c1", "note": "[TS076, 3′-Methyl-4-dimethylaminoazobenzene]", "values": [{"measurement": "Behavior of gene caused by administration of chemical substance, Gene No. 4846", "setting": "[1]; gene group (A), Unigene No. Rn.144554", "value": "+"}, {"measurement": "Behavior of gene caused by administration of chemical substance, Gene No. 2026", "setting": "[1]; [2]", "value": "+"}, {"measurement": "Behavior of gene caused by administration of chemical substance, Gene No. 4218", "setting": "[1]; [2]", "value": "+"}, {"measurement": "Behavior of gene caused by administration of chemical substance, Gene No. 6182", "setting": "[1]; gene group (A), Unigene No. Rn.5834", "value": "+"}, {"measurement": "Behavior of gene caused by administration of chemical substance, Gene No. 5600", "setting": "[1]; gene group (A), Unigene No. Rn.9836", "value": "+"}, {"measurement": "Behavior of gene caused by administration of chemical substance, Gene No. 1494", "setting": "[1]; gene group (B), Unigene No. Rn.1430", "value": "+"}, {"measurement": "Behavior of gene caused by administration of chemical substance, Gene No. 2045", "setting": "[1]; gene group (B), Unigene No. Rn.19329", "value": "+"}, {"measurement": "Behavior of gene caused by administration of chemical substance, Gene No. 2203", "setting": "[1]; gene group (B), Unigene No. Rn.21240", "value": "−"}, {"measurement": "Behavior of gene caused by administration of chemical substance, Gene No. 533", "setting": "[1]; gene group (C), Unigene No. Rn.106184", "value": "+"}, {"measurement": "Behavior of gene caused by administration of chemical substance, Gene No. 725", "setting": "[1]; gene group (C), Unigene No. Rn.108075", "value": "+"}, {"measurement": "Behavior of gene caused by administration of chemical substance, Gene No. 1163", "setting": "[1]; gene group (C), Unigene No. Rn.11766", "value": "−"}, {"measurement": "Behavior of gene caused by administration of chemical substance, Gene No. 4973", "setting": "[1]; gene group (C), Unigene No. Rn.118529", "value": "+"}, {"measurement": "Behavior of gene caused by administration of chemical substance, Gene No. 4095", "setting": "[1]; gene group (C), Unigene No. Rn.119024", "value": "+"}, {"measurement": "Behavior of gene caused by administration of chemical substance, Gene No. 1334", "setting": "[1]; [3]", "value": "−"}, {"measurement": "Behavior of gene caused by administration of chemical substance, Gene No. 6620", "setting": "[1]; [3]", "value": "−"}, {"measurement": "Behavior of gene caused by administration of chemical substance, Gene No. 6303", "setting": "[1]; gene group (C), Unigene No. Rn.123063", "value": "+"}, {"measurement": "Behavior of gene caused by administration of chemical substance, Gene No. 5878", "setting": "[1]; gene group (C), Unigene No. Rn.143213", "value": "−"}, {"measurement": "Behavior of gene caused by administration of chemical substance, Gene No. 1131", "setting": "[1]; gene group (C), Unigene No. Rn.144946", "value": "−"}, {"measurement": "Behavior of gene caused by administration of chemical substance, Gene No. 1562", "setting": "[1]; gene group (C), Unigene No. Rn.14744", "value": "+"}, {"measurement": "Behavior of gene caused by administration of chemical substance, Gene No. 1741", "setting": "[1]; gene group (C), Unigene No. Rn.1647", "value": "+"}, {"measurement": "Behavior of gene caused by administration of chemical substance, Gene No. 893", "setting": "[1]; gene group (C), Unigene No. Rn.164817", "value": "−"}, {"measurement": "Behavior of gene caused by administration of chemical substance, Gene No. 6026", "setting": "[1]; gene group (C), Unigene No. Rn.167685", "value": "−"}, {"measurement": "Behavior of gene caused by administration of chemical substance, Gene No. 154", "setting": "[1]; gene group (C), Unigene No. Rn.185941", "value": "+"}, {"measurement": "Behavior of gene caused by administration of chemical substance, Gene No. 1993", "setting": "[1]; gene group (C), Unigene No. Rn.18728", "value": "+"}, {"measurement": "Behavior of gene caused by administration of chemical substance, Gene No. 813", "setting": "[1]; gene group (C), Unigene No. Rn.201760", "value": "−"}, {"measurement": "Behavior of gene caused by administration of chemical substance, Gene No. 2494", "setting": "[1]; gene group (C), Unigene No. Rn.23969", "value": "−"}, {"measurement": "Behavior of gene caused by administration of chemical substance, Gene No. 2546", "setting": "[1]; gene group (C), Unigene No. Rn.24561", "value": "−"}, {"measurement": "Behavior of gene caused by administration of chemical substance, Gene No. 3776", "setting": "[1]; gene group (C), Unigene No. Rn.43232", "value": "−"}, {"measurement": "Behavior of gene caused by administration of chemical substance, Gene No. 3929", "setting": "[1]; gene group (C), Unigene No. Rn.4620", "value": "−"}, {"measurement": "Behavior of gene caused by administration of chemical substance, Gene No. 1119", "setting": "[1]; gene group (C), Unigene No. Rn.9757", "value": "−"}, {"measurement": "Behavior of gene caused by administration of chemical substance, Gene No. 6742", "setting": "[1]; gene group (C), Unigene No. Rn.9779", "value": "−"}, {"measurement": "Behavior of gene caused by administration of chemical substance, Gene No. 5634", "setting": "[1]; gene group (C), Unigene No. Rn.9862", "value": "−"}, {"measurement": "Behavior of gene caused by administration of chemical substance, Gene No. 5726", "setting": "[1]; gene group (D), Unigene No. Rn.9939", "value": "−"}, {"measurement": "Liver carcinogenicity", "setting": "liver", "value": "Cr+"}, {"measurement": "Carcinogenicity", "setting": "rodent", "value": "C+"}]}]}
